Assay results as given in patent US20080033007A1, “Substituted Tetrahydroisoquinoline Compounds for Cancer Therapy” (priority 2002, published 2008).
Entries after “also recorded” stand apart in the source; their conditions may differ.

How the values were obtained:
C6 glioma = assay: in vivo rat model: C6 glioma cells injected into brain, treatment by osmotic mini pump; settings: rat hippocampus, 7 days treatment
From the text: Approximately 5×10^4 C6 glioma cells were transplanted into a rat brain via a cannula followed by treatment for seven days. Tumor cells are depicted by staining for beta galactosidase.
FIG. 2 is a graph depicting the maximum extent of tumor in a single section.
A rat model system was developed to examine the in vivo efficacy of the compounds of the present invention.
The first step was to produce a cell line with a marker gene. A rat C6 glioma cell line was selected and stably transfected with a β-galactosidase construct. These cells were cultured and prepared for injection into the brain of adult Sprague-Dawley rats to simulate in vivo tumor development.
The animals were anesthetized and a cannula was placed into the brain. Approximately 5×10^4 glioma cells were injected through the cannula. […] The mini osmotic pump delivered 1 μl/hr for 7 days. With the tubing used to connect the pump, there was approximately a 10 hour delay for the treatment to reach the brain.
The section with the largest extent of tumor visible in all of the cases was identified and the cross-sectional area of the tumor was measured.

[1] = test system: MCF7, A549, HeLa, LnCap cancer cell lines; assay: anti-proliferative activity against cancer cell lines, 96 hr; type: cell-based; settings: every type of cancer tested: brain, breast, lung epithelial, cervical, prostate cancer cell lines
Description: Cell proliferation was measured and EC50 values were estimated.

[2] = animal toxicity test, delivery into striatum by mini-osmotic pump; type: in vivo, rat; settings: 5 μM into striatum, five days, Nissl stain; hydrochloride
Description: The drug was delivered directly into the striatum of rats at a concentration of 5 μM, two times greater than the estimated EC50 value. […] The rats were sacrificed, brain sections were investigated for any major tissue change in the brain. Brains were fixed in 4% paraformaldehyde, cut in sections and stained by the Nissl method.
The drug was administered into the striatum of rats at 5 μM, which is approximately two times greater than the estimated EC5) value. […] The rats were sacrificed and brain sections were investigated for any major tissue change in the brain. Brains were fixed in 4% paraformaldehyde, cut in sections, and stained by the Nissl method.

C6 rat glioma = assay: differential culture cytotoxicity assay, C6 glioma; settings: comparison of IC50 values
Description: Normal cultured rat astrocytes and C6 rat glioma were used as a differential screen for a variety of 1,2,3,4-tetrahydroisoquinoline derivatives. […] To explore structure activity relationships (SAR) a number of 1,2,3,4-tetrahydroisoquinolines 2, 4, 5, 7, and 8 were synthesized and tested for antiglioma activity.
The astrocytes primary culture was derived from neonatal (4-8 days postpartum) rat pups as described by Geisert et al. The primary cultures were prepared as per McCarthy et al. Briefly, the rat pups were anesthetized on ice, decapitated, and the brains were removed. The cerebral cortex was removed, stripped of the meninges, and cut into small pieces of approximately 1 mm^2. The tissue was placed in 0.1% trypsin for 15 min and gently pipetted to produce a single cell suspension. The cell suspension was then rinsed in media and transferred to culture flasks. […]
The experimental treatment was the incubation of the cells with test compound for 96 h at 37° C., 5% CO2. The cells were fixed with 4% formaldehyde, stained with 0.1% cresylecth violet stain, and quantitated as per Wagner et a. […]
The cytotoxic character of each compound was reported as the percent survival, calculated as the average A560 for treated cells divided by A560 of untreated (negative control) cells, and expressed as a percentage. […]

[3] = test system: primary cultured cortical astrocytes; assay: effect on primary cultured cortical astrocytes (Example 5); settings: at EC50 concentrations for the C6 gliomas

Cl.Oc1cc2c(cc1O)C(Cc1ccc(-c3ccccc3)cc1)NCC2 (racemic) [MMGS-155]
pathology of normal brain tissue beneath treatment cannula (C6 glioma): Limited pathology | LD50, killing of cancer cells in culture [1]: approximately 3 μM | brain damage / tissue change [2]: did not show any sign of brain damage; also recorded: brain tissue appears normal | cytotoxic activity relative to another compound (C6 rat glioma; listed as 1, hydrochloride): more potent; also recorded: at least two-fold higher potency | cytotoxic activity relative to another compound (C6 rat glioma; listed as 1-(biphenyl-4-ylmethyl)-1,2,3,4-tetrahydroisoquinoline-6,7-diol, hydrochloride): increased relative potency | destruction to astrocytes [3]: only minimal destruction to astrocytes
